The record followed here is article PMC8456977, “Inclusion Complexes of Gold(I)‐Dithiocarbamates with β‐Cyclodextrin: A Journey from Drug Repurposing towards Drug Discovery” (Chemistry (Weinheim an Der Bergstrasse, Germany), 2021).

Broadly, the EC50 is the midpoint of the concentration-response curve.

One series deals with HeLa. Briefly: Quantification of drug sensitivity (CellTiter-Blue), HeLa. It counts as cell-based. As to conditions: HeLa (cervix carcinoma), 72 h, 30-fold excess 2-hydroxypropyl-β-cyclodextrin, combination DSF/ATM 1:1. On the procedure:
(§1) Quantification of drug sensitivity (Figure 2A): Cell lines (including HT‐29) were obtained from ATCC or as gifts from other research groups at the DKFZ and checked for mycoplasma contamination and authenticity before use. Cell lines were seeded in 96‐well plates in RPMI‐1640 medium, supplemented with 10 % BCS (bovine calf serum) and 1 % Pen/Strep at a density of 2×10^4 cells/well. Disulfiram (DSF) and sodium aurothiomalate (ATM) were added at a fixed ratio of 1 : 1, formulated in a 30‐fold molar excess of 2HP‐β‐CD (2‐hydroxypropyl‐β‐cyclodextrin). ATM and DSF monotherapy was also done in the presence of 2HP‐β‐CD, to control for possible combination effects by 2HP‐β‐CD. All concentrations were applied in triplicate. After incubation at 37 °C for 72 h, CellTiter‐Blue (Promega) was added (10 μL/well). After incubation at 37 °C for 4 h, fluorescence (excitation filter: 550 nm, emission filter 590 nm) was determined in an Optima FLUOstar microplate reader (BMG Labtech). Mean values were calculated for each treatment and EC50 values were calculated from […] dose response curves.
(Alamar Blue is a resazurin reagent that responds to reducing activity.)

The test system of a further series is MeWo. Briefly: Quantification of drug sensitivity (CellTiter-Blue), MeWo. In kind it is cell-based. The conditions noted are these: MeWo (melanoma), 72 h, 30-fold excess 2-hydroxypropyl-β-cyclodextrin, combination DSF/ATM 1:1. As to the method:
as §1

In the next series the test system is HL-60. Briefly: Quantification of drug sensitivity (CellTiter-Blue), HL-60. The conditions noted are these: HL-60 (non-T cell leukemia), 72 h, 30-fold excess 2-hydroxypropyl-β-cyclodextrin, combination DSF/ATM 1:1. In kind it is cell-based. As to the method: as §1
The subject of a further series is Calu-6 cells. Description: Quantification of drug sensitivity (CellTiter-Blue), Calu-6. It counts as cell-based. The conditions noted are these: Calu-6 (NSCLC), 72 h, 30-fold excess 2-hydroxypropyl-β-cyclodextrin, combination DSF/ATM 1:1. On the procedure:
as §1
Dose-Response Curves of ATM/DSF and 5
Figure S2: Dose-response curves of the s toichiometric mixture of ATM and DSF (blue) as well
as isolated 5 (red) for the treatment of Calu-6 cells (both in the presence of 30-fold excess of 2-
(also on this page, place not known: Normalized Proliferation (CellTiter-Blue) stoichiometric) […]

A further series has as its system SK-OV-3. Briefly: Quantification of drug sensitivity (CellTiter-Blue), SK-OV-3. As to conditions: SK-OV-3 (ovarian carcinoma), 72 h, 30-fold excess 2-hydroxypropyl-β-cyclodextrin, combination DSF/ATM 1:1. In kind it is cell-based. As to the method: as §1
For another series, the system named is COLO-357. Briefly: Quantification of drug sensitivity (CellTiter-Blue), COLO-357. In kind it is cell-based. The conditions noted are these: COLO-357 (pancreatic cancer), 72 h, 30-fold excess 2-hydroxypropyl-β-cyclodextrin, combination DSF/ATM 1:1. On the procedure:
as §1

Another series relates to HCT 116. Description: Quantification of drug sensitivity (CellTiter-Blue), HCT 116. As to conditions: HCT 116 (colon carcinoma), 72 h, 30-fold excess 2-hydroxypropyl-β-cyclodextrin, combination DSF/ATM 1:1. It counts as cell-based. On the procedure: as §1
The subject of series [1] is mitochondrial ROS in H838 cells (roGFP2-Orp1). Briefly: ROS level in mitochondria, roGFP2-Orp1 sensor. It counts as cell-based. As to conditions: 12.5 μM, DMSO stock or up to 32-fold excess of SBE-β-CD. On the procedure: (§2) Measurement of ROS levels in cytoplasm and mitochondria (Figure 8): The effects of 33 and auranofin on roGFP2‐Orp1 oxidation were quantified in H838 cells stably expressing roGFP2‐Orp1 targeted either to cytoplasm or mitochondria as described in Ezerina et al.[28] Specifically, a 5 mM stock solution of 33 was prepared by directly dissolving solid 33 into 10 mM, 40 mM, 80 mM, and 160 mM solutions of SBE‐β‐CD (Biomol) in PBS (Gibco). A 100 mM auranofin (Sigma‐Aldrich) solution was prepared in DMSO (Sigma‐Aldrich). This was further diluted to 0.5 mM stock solutions of auranofin in 0 mM, 4 mM, 8 mM, and 16 mM SBE‐β‐CD in PBS. […] Non‐transduced H838 cells were seeded on the same plate to establish background fluorescence. The fluorescence intensity from these wells was subtracted from all the measurement results. To establish the signal baseline, the entire plate was measured every 3 min for 8 cycles in a CLARIOstar fluorescence plate reader (BMG Labtech), with excitation wavelengths of 400 nm and 485 nm, while measuring emission at 520 nm. […] The readout of the roGFP2 measurement is normalized to the positive (1.0) and the negative (0) controls using the following equation: OxDroGFP2=(I400sampleI485red)-(I400redI485sample)/(I400sample)I485red-I485ox+(I485sampleI400ox-I400red)
(§3) where I400 and I485 are the signal intensities measured at 520 nm after excitation at 400 nm and 485 nm, respectively. […]

Series [2] concerns cytoplasmic ROS in H838 cells (roGFP2-Orp1). Description: ROS level in cytoplasm, roGFP2-Orp1 sensor. It counts as cell-based. As to conditions: 12.5 μM, DMSO stock or up to 32-fold excess of SBE-β-CD. As to the method: as §2, §3
The nature of series [3]: Solubility / solubilization in solvents and cyclodextrin (observations). It counts as physicochemical.

Consider `O=C([O-])CC([S-])C(=O)[O-].[Au+].[Na+].[Na+]` (stereo not shown) [ATM, sodium aurothiomalate], for which the EC50 with HeLa is 440 µM; in the series on MeWo, 130 µM; in the series on HL-60 it was 330 µM; in the series on Calu-6 cells, 360 µM; in the series on SK-OV-3 it was 260 µM; with COLO-357, 96 µM. Moreover, in the series with HCT 116, the EC50 turned out to be 140 µM.

For `CCN(CC)C(=S)SSC(=S)N(CC)CC` [DSF, disulfiram], the EC50 with HeLa (Homo sapiens) was determined as 320 µM; in the series on MeWo (Homo sapiens) it was 290 µM; in the series on HL-60 (Homo sapiens), 120 µM; with Calu-6 cells (Homo sapiens) it was 160 µM; in the series on SK-OV-3 (Homo sapiens) it was 340 µM; in the series on COLO-357 (Homo sapiens, COLO357) it was 82 µM. The EC50 with HCT 116 (Homo sapiens) turned out to be 3.4 µM.

Regarding `CC(=O)OC[C@H]1O[C@@H]([S-])[C@H](OC(C)=O)[C@@H](OC(C)=O)[C@@H]1OC(C)=O.CCP(CC)CC.[Au+]` [auranofin], in series [1], the “mitochondrial ROS (roGFP2-Orp1 oxidation)” value was “high levels of ROS”. Further, the “cytoplasmic ROS (roGFP2-Orp1 oxidation)” value in [2] is on record as “high levels of ROS”.

In the case of [Au(N,N‐diethyl)dtc]2 [compound 5], the EC50 in the series with Calu-6 cells amounted to 1.6 µM. Moreover, in series [3], the “cyclodextrin required for solubilization” value was over 30 molar equivalents. Further, the “solubility in common/organic solvents” value in series [3] (organic solvents including DMSO, ambient temperature) was “poor solubility”.
